What was measured:
[1] = target: CYP2D6 (Homo sapiens, UniProt P10635); experiment: CYP inhibition, LC–MS/MS assay in human liver microsomes; settings: probe bufuralol
[2] = Toxicokinetics in the 90-day dietary study; type: in vivo, Sprague-Dawley rats; settings: for AUC0–24 h/dose / Cmax/dose: M+F combined
[3] = test system: Primary human lymphocytes; experiment: In vitro chromosome aberration test
[4] = test system: E. coli strain WP2 uvrA; experiment: Bacterial reverse mutation test; type: cell-based
[5] = 28-day dose-range finding toxicity study; type: in vivo, Sprague-Dawley rats; settings: 10, 30, 100 mg/kg bw/day (food ad-mix)
[6] = In vitro metabolism, human liver microsomes; type: in vitro ADME; settings: 60 min, 10 μM S3643, relative to S3643 peak area at time 0

CYP2D6, sequence (P10635 whole entry): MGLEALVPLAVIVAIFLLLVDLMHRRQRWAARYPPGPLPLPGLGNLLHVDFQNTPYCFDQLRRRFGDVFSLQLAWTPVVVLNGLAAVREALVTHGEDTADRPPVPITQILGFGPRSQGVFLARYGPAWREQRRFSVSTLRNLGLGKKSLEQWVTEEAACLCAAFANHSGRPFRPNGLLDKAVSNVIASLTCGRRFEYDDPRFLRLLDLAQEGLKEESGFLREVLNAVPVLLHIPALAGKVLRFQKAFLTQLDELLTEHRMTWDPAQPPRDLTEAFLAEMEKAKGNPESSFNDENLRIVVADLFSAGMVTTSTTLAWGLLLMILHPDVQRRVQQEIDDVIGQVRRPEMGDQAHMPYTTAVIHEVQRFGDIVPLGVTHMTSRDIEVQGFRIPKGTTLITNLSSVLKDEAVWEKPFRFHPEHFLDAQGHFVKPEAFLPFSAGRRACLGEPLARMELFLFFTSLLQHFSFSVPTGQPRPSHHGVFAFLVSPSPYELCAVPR

## COc1cccc(-c2n[nH]c(SCc3ccccn3)n2)c1OC [S3643, 2-(((3-(2,3-dimethoxyphenyl)-1H-1,2,4-triazol-5-yl)thio)methyl)pyridine]
[1]
  inhibition at 10 µM: 22%
[2]; Day 7, nominal 10 mg/kg bw
  AUC0–24 h/dose: 574 ng·h/mL/mg/kg
  Cmax/dose: 31.9 ng/mL/mg/kg
[2]; Day 7, nominal 30 mg/kg bw
  AUC0–24 h/dose: 1140 ng·h/mL/mg/kg
  Cmax/dose: 80.6 ng/mL/mg/kg
[2]; Day 7, nominal 100 mg/kg bw
  AUC0–24 h/dose: 1280 ng·h/mL/mg/kg
  Cmax/dose: 75.7 ng/mL/mg/kg
[2]; Day 90, nominal 10 mg/kg bw
  AUC0–24 h/dose: 1070 ng·h/mL/mg/kg
  Cmax/dose: 78.3 ng/mL/mg/kg
[2]; Day 90, nominal 30 mg/kg bw
  AUC0–24 h/dose: 1560 ng·h/mL/mg/kg
  Cmax/dose: 98.0 ng/mL/mg/kg
[2]; Day 90, nominal 100 mg/kg bw
  AUC0–24 h/dose: 1730 ng·h/mL/mg/kg
  Cmax/dose: 97.5 ng/mL/mg/kg
[2]; Day 90/Day 7, nominal 10 mg/kg bw
  ACUM Ratio: 1.86
[2]; Day 90/Day 7, nominal 30 mg/kg bw
  ACUM Ratio: 1.37
[2]; Day 90/Day 7, nominal 100 mg/kg bw
  ACUM Ratio: 1.35
[2]; both, Sprague-Dawley (Crl:CD(SD)), rat, plasma, po, 100 mg/kg bw/day, Combined mean AUC0-24hr, Day 90, 100 mg/kg bw/day
  AUC(0-t): 184 µg·h/mL
[3]; 63–250 μg/mL, 3 h exposure, +S9
  Chromosome aberration (in vitro), result: Negative
[3]; 63–250 μg/mL, 20 h exposure, −S9
  Chromosome aberration (in vitro), result: Negative
[3]; 130–500 μg/mL, 3 h exposure, −S9
  Chromosome aberration (in vitro), result: Negative
[3]; non-activated and S9-activated
  Induction of structural and numerical chromosome aberrations, conclusion: negative
[4]; 250–5000 μg/plate, plate incorporation and pre-incubation, ±S9
  Reverse mutation (in vitro), result: Negative
[4]; absence and presence of metabolic activation
  Mutagenicity, conclusion: not mutagenic
[5]
  Findings: No test-article related findings
[6]
  % MS Peak Area, Human: 54.9%
